Measurements taken from patent US12116357B2, “Heteroaryl-triazole and heteroaryl-tetrazole compounds as pesticides” (Bayer Aktiengesellschaft, priority 2018, dated 2024).

Tests used:
Format in all cases: in vivo
[1] = tested on: Boophilus microplus; assay: Boophilus microplus injection test; conditions: Rhipicephalus microplus, 168 h, 20 μg/animal, egg deposition after 7 days, read-out: efficacy (infertile eggs)
Description: (§1) • Solvent: dimethyl sulfoxide
To produce a suitable preparation of active compound, 10 mg of active compound are dissolved in 0.5 ml solvent, and the concentrate is diluted with solvent to the desired concentration.
Five adult engorged female ticks (Boophilus microplus) are injected with 1 μl compound solution into the abdomen. The ticks are transferred into replica plates and incubated in a climate chamber.
After 7 days egg deposition of fertile eggs is monitored. Eggs where fertility is not visible are stored in a climate chamber till hatching after about 42 days. An efficacy of 100% means all eggs are infertile; 0% means all eggs are fertile.

[2] = tested on: Ctenocephalides felis; assay: Ctenocephalides felis oral test; conditions: 48 h, 100 ppm in cattle blood, after 2 days
Description: as §1
To produce a suitable preparation of active compound, 10 mg of active compound are dissolved in 0.5 ml solvent, and the concentrate is diluted with cattle blood to the desired concentration.
Approximately 20 adult unfed cat fleas (Ctenocephalides felis) are placed in flea chambers. The blood chamber, sealed with parafilm on the bottom, are filled with cattle blood supplied with compound solution and placed on the gauze covered top of the flea chamber, so that the fleas are able to suck the blood. The blood chamber is heated to 37° C. whereas the flea chamber is kept at room temperature.
After 2 days mortality in % is determined. 100% means all the fleas have been killed; 0% means none of the fleas have been killed.

[3] = tested on: Phaedon cochleariae; assay: Phaedon cochleariae spray test; conditions: 168 h, after 7 days
Description: (§2) • Solvent: 78.0 parts by weight of acetone • 1.5 parts by weight of dimethylformamide • Emulsifier: alkylarylpolyglycol ether
(§3) To produce a suitable preparation of active compound, 1 part by weight of active compound is mixed with the stated amount of solvents and is diluted with water, containing an emulsifier concentration of 1000 ppm, to the desired concentration. Further test concentrations are prepared by dilution with emulsifier containing water.
Chinese cabbage (Brassica pekinensis) leaf disks are sprayed with a preparation of the active ingredient of the desired concentration. Once dry, the leaf disks are infested with mustard beetle larvae (Phaedon cochleariae).
After 7 days mortality in % is determined. 100% means all beetle larvae have been killed and 0% means none of the beetle larvae have been killed.

[4] = tested on: Spodoptera frugiperda; assay: Spodoptera frugiperda spray test; conditions: 168 h
Description: (§4) • Solvent: 78.0 parts by weight acetone • 1.5 parts by weight dimethylformamide • Emulsifier: alkylarylpolyglycol ether
as §3
Maize (Zea mays) leaf sections are sprayed with a preparation of the active ingredient of the desired concentration. Once dry, the leaf sections are infested with fall armyworm larvae (Spodoptera frugiperda).
After 7 days mortality in % is determined. 100% means all caterpillars have been killed and 0% means none of the caterpillars have been killed.

[5] = tested on: Nezara viridula; assay: Nezara viridula spray test; conditions: 96 h
Description: as §2
To produce a suitable preparation of active compound, 1 part by weight of active compound is mixed with the stated amount of solvent, and the concentrate is diluted with water, containing an emulsifier concentration of 1000 ppm, to the desired concentration. Further test concentrations are prepared by dilution with emulsifier containing water.
Barley plants (Hordeum vulgare) infested with larvae of the southern green stink bug (Nezara viridula) are sprayed with a test solution containing the desired concentration of the active ingredient.
After 4 days mortality in % is determined. 100% means all the stink bugs have been killed; 0% means none of the stink bugs have been killed.

[6] = tested on: Myzus persicae; assay: Myzus persicae oral test; conditions: 120 h
Description: • Solvent: 100 parts by weight acetone
To produce a suitable preparation of active compound, 1 part by weight of active compound is mixed with the stated amount of solvent, and the concentrate is diluted with water to the desired concentration. 50 μl compound solution is filled in microtiter plates and 150 μl IPL41 insect medium (33%+15% sugar) is added to obtain a total volume of 200 μl per well. Afterwards the plates are sealed with parafilm through which a mixed population of the green peach aphid (Myzus persicae) can suck on the compound preparation.
(§5) After 5 days mortality in % is determined. 100% means all aphids have been killed and 0% means none of the aphids have been killed.

[7] = tested on: Rhipicephalus sanguineus; assay: Rhipicephalus sanguineus in-vitro contact test, adult brown dog ticks
Description: (§6) 9 mg compound is solved in 1 ml acetone and diluted with acetone to the desired concentration. 250 μl of the test solution is filled in 25 ml glass test tubes and homogeneously distributed on the inner walls by rotation and tilting on a shaking device (2 h at 30 rpm). With a compound concentration of 900 ppm, an inner surface of 44.7 cm^2 and a homogeneous distribution, a dose of 5 μg/cm^2 is achieved.
After the solvent has evaporated, each test tube is filled with 5-10 adult brown dog ticks (Rhipicephalus sanguineus), closed with a perforated lid and incubated in a lying position at room temperature and relative humidity. After 48 hours efficacy is determined. The ticks are patted on the ground of the tubes and are incubated on a heating plate at 45-50° C. for at most 5 minutes. Immotile or uncoordinated moving ticks, which are not able to escape the heat by climbing upwards, are marked as dead or moribund.
An efficacy of 100% means all ticks are dead or moribund; 0% means no ticks are dead or moribund.

[8] = tested on: Nilaparvata lugens; assay: Nilaparvata lugens spray test; conditions: 96 h
Description: as §2, §3
Rice plants (Oryza sativa) are sprayed with a preparation of the active ingredient of the desired concentration and the plants are infested with the brown planthopper (Nilaparvata lugens).
After 4 days mortality in % is determined. 100% means all planthoppers have been killed and 0% means none of the planthoppers have been killed.

[9] = tested on: Ctenocephalides felis; assay: Ctenocephalides felis in-vitro contact test, adult cat flea; conditions: 5 μg/cm^2, after 48 hours, read-out: efficacy (fleas dead or moribund)
Description: as §6
After the solvent has evaporated, each test tube is filled with 5-10 adult cat fleas (Ctenocephalides felis), closed with a perforated lid and incubated in a lying position at room temperature and relative humidity. After 48 hours efficacy is determined. The fleas are patted on the ground of the tubes and are incubated on a heating plate at 45-50° C. for at most 5 minutes. Immotile or uncoordinated moving fleas, which are not able to escape the heat by climbing upwards, are marked as dead or moribund.
An efficacy of 100% means all fleas are dead or moribund; 0% means no fleas are dead or moribund.

[10] = tested on: Myzus persicae; assay: Myzus persicae spray test; conditions: 120 h
Description: as §4, §3
Chinese cabbage (Brassica pekinensis) leaf disks infected with all instars of the green peach aphid (Myzus persicae), are sprayed with a preparation of the active ingredient of the desired concentration.
as §5

[11] = tested on: Aedes aegypti strain MONHEIM; assay: Aedes aegypti test (surface treatment & contact assay); conditions: 24 hours after contact, read-out: efficacy (mortality); for mortality at 4 mg/m2: surface concentration 4 mg/m^2, 30 min exposure; for mortality at 20 mg/m2: surface concentration 20 mg/m^2, 30 min exposure
Description: (§7) • Solvent: Aceton+2000 ppm rapeseed oil methyl ester (RME)
In order to produce a sufficient, active ingredient containing solution it is necessary to solve the test compound in the solvent-mix (acetone at 2 mg/ml/RME 2000 ppm). This solution is pipetted onto a glazed tile and after evaporation of the acetone, adult mosquitoes of the species Aedes aegypti strain MONHEIM are placed onto the dried surface. The exposure time is 30 minutes.
(§8) Mortality in percent (%) is determined 24 hours after contact of the insects to the treated surface. 100% mortality means that all tested insects are dead, whereas 0% means that no insect died.

[12] = tested on: Musca domestica strain WHO-N; assay: Musca domestica test (surface treatment & contact assay); conditions: 24 hours after contact, read-out: efficacy (mortality); for mortality at 4 mg/m2: surface concentration 4 mg/m^2, 30 min exposure; for mortality at 20 mg/m2: surface concentration 20 mg/m^2, 30 min exposure
Description: as §7
In order to produce a sufficient, active ingredient containing solution it is necessary to solve the test compound in the solvent-mix (acetone at 2 mg/ml/RME 2000 ppm). This solution is pipetted onto a glazed tile and after evaporation of the acetone, adult flies of the species Musca domestica strain WHO-N are placed onto the dried surface. The exposure time is 30 minutes.
as §8

[13] = tested on: Culex quinquefasciatus strain P00; assay: Culex quinquefasciatus test (surface treatment & contact assay); conditions: 24 hours after contact, read-out: efficacy (mortality); for mortality at 20 mg/m2: surface concentration 20 mg/m^2, 30 min exposure
Description: as §7
In order to produce a sufficient, active ingredient containing solution it is necessary to solve the test compound in the solvent-mix (acetone at 2 mg/ml/RME 2000 ppm). This solution is pipetted onto a glazed tile and after evaporation of the acetone, adult mosquitoes of the species Culex quinquefasciatus strain P00 are placed onto the dried surface. The exposure time is 30 minutes.
as §8

[14] = tested on: Anopheles funestus strain FUMOZ-R; assay: Anopheles funestus test (surface treatment & contact assay); conditions: surface concentration 20 mg/m^2, 30 min exposure, 24 hours after contact, read-out: efficacy (mortality)
Description: as §7
In order to produce a sufficient, active ingredient containing solution it is necessary to solve the test compound in the solvent-mix (acetone at 2 mg/ml/RME 2000 ppm). This solution is pipetted onto a glazed tile and after evaporation of the acetone, adult mosquitoes of the species Anopheles funestus strain FUMOZ-R (Hunt et al., Med. Vet. Entomol. 2005 September; 19(3): 271-275) are placed onto the dried surface. The exposure time is 30 minutes.
as §8

SMILES: COCCN(C(=O)c1cc(Cl)cc(C(F)(F)F)c1)C(C)c1ncnn1-c1ncccn1 (stereo not shown) [Example I-005]
- pest or weed control at 0.02 mg [1]: 100%
- mortality at 100 ppm [2]: 100%
- mortality at 500 g/ha [3]: 100%
- mortality at 500 g/ha [4]: 100%
- mortality at 500 g/ha [5]: 90%
- mortality at 4 ppm [6]: 100%
- mortality at 20 ppm [6]: 100%
- efficacy (ticks dead or moribund) ([7]; 1 μg/cm^2, after 48 hours): 80%
- efficacy (ticks dead or moribund) ([7]; 5 μg/cm^2, after 48 hours): 80%

SMILES: CON(C(=O)c1cccc(C(F)(F)F)c1)C(C)c1ncnn1-c1ncccn1 (stereo not shown) [Example I-028]
- pest or weed control at 0.02 mg [1]: 100%
- mortality at 500 g/ha [8]: 100%
- mortality at 500 g/ha [5]: 100%
- efficacy (ticks dead or moribund) ([7]; 1 μg/cm^2, after 48 hours): 80%
- efficacy (ticks dead or moribund) ([7]; 5 μg/cm^2, after 48 hours): 100%

SMILES: CCON(C(=O)c1cccc(C(F)(F)F)c1)C(C)c1ncnn1-c1ncccn1 (stereo not shown) [Example I-029]
- pest or weed control at 0.02 mg [1]: 100%
- mortality at 100 ppm [2]: 80%
- mortality at 500 g/ha [5]: 100%
- mortality at 4 ppm [6]: 100%
- pest or weed control at 5 µg/cm2 [9]: 100%
- efficacy (ticks dead or moribund) ([7]; 5 μg/cm^2, after 48 hours): 80%

SMILES: CC(c1ncnn1-c1ncccn1)N(Cc1ccc(Cl)nc1)C(=O)c1cc(Cl)cc(C(F)(F)F)c1 (stereo not shown) [Example I-030]
- pest or weed control at 0.02 mg [1]: 100%
- mortality at 500 g/ha [8]: 100%
- mortality at 100 ppm [2]: 100%
- mortality at 500 g/ha [10]: 100%
- mortality at 500 g/ha [4]: 100%
- mortality at 500 g/ha [5]: 100%
- mortality at 4 mg/m2 [11]: 80 to 100%
- mortality at 20 mg/m2 [11]: 90 to 100%
- mortality at 4 mg/m2 [12]: 90 to 100%
- mortality at 20 mg/m2 [12]: 90 to 100%
- mortality at 4 ppm [6]: 100%
- mortality at 20 mg/m2 [13]: 90 to 100%
- mortality at 20 mg/m2 [14]: 85 to 100%
- pest or weed control at 5 µg/cm2 [9]: 90%

SMILES: COCCN(C(=O)c1cc(Cl)cc(S(C)(=O)=O)c1)C(C)c1ncnn1-c1ncccn1 (stereo not shown) [Example I-031]
- pest or weed control at 0.02 mg [1]: 100%
- mortality at 500 g/ha [8]: 100%
- mortality at 100 ppm [2]: 100%
- mortality at 500 g/ha [10]: 100%
- mortality at 500 g/ha [5]: 100%
- mortality at 4 ppm [6]: 100%
- mortality at 20 mg/m2 [14]: 85 to 100%
- pest or weed control at 5 µg/cm2 [9]: 80%

SMILES: CSCCN(C(=O)c1cc(Cl)cc(C(F)(F)F)c1)C(C)c1ncnn1-c1ccc(C#N)cn1 (stereo not shown) [Example I-033]
- mortality at 500 g/ha [10]: 90%
- mortality at 500 g/ha [4]: 100%
- mortality at 500 g/ha [5]: 100%
- mortality at 4 mg/m2 [11]: 80 to 100%
- mortality at 20 mg/m2 [11]: 90 to 100%
- mortality at 4 mg/m2 [12]: 90 to 100%
- mortality at 20 mg/m2 [12]: 90 to 100%
- mortality at 4 ppm [6]: 100%
- mortality at 20 mg/m2 [13]: 90 to 100%
- mortality at 20 mg/m2 [14]: 85 to 100%
- pest or weed control at 5 µg/cm2 [9]: 100%

SMILES: CSCCN(C(=O)c1cc(C(F)(F)F)cc(C(F)(F)F)c1)C(C)c1ncnn1-c1ccc(C#N)cn1 (stereo not shown) [Example I-034]
- mortality at 500 g/ha [10]: 100%
- mortality at 500 g/ha [4]: 100%
- mortality at 500 g/ha [5]: 100%
- mortality at 20 mg/m2 [11]: 90 to 100%
- mortality at 4 mg/m2 [12]: 90 to 100%
- mortality at 20 mg/m2 [12]: 90 to 100%
- mortality at 4 ppm [6]: 100%
- mortality at 4 mg/m2 ([13]; surface concentration 4 mg/m^2, 30 min exposure): 85 to 100%
- mortality at 20 mg/m2 [13]: 90 to 100%
- mortality at 20 mg/m2 [14]: 85 to 100%
- pest or weed control at 5 µg/cm2 [9]: 100%
